Laboratory results from patent publication US10344002B2, “Compositions and methods for treating metabolic disorders” (NuSirt Sciences, Inc., priority 2016, dated 2019).

Legend:
HepG2 liver cells = experiment: Lipid accumulation (Oil Red Staining) in HepG2 liver cells induced with high glucose plus insulin; assay type: cell-based; conditions: 48 hours
Experimental: Cell Culture: HepG2 liver cells were seeded with 80,000 cells per well on 24-well tissue culture plates in low glucose (5 mM) DMEM containing 10% FBS and antibiotics. After 24 hours of attachment, lipid accumulation was induced by incubating cells with high glucose (25 mM) DMEM (10% FBS, 1% Pen-Strep) plus 100 nM insulin for 48 hours. Cells were then treated with indicated concentrations of Compound 2 for an additional 48 hours.
Compound 2 was dissolved in 100% DMSO to a stock concentration of 100 mM. This stock was further diluted to indicated concentrations in DMEM media.
Lipid accumulation (Oil Red Staining): HepG2 liver cells were seeded and treated as described above. After 48 hours of treatment with Compound 2, lipid accumulation in HepG2 was measured via Oil Red Staining. Cells were washed with phosphate buffered saline (PBS) once, then cells were fixated with 10% formalin for 1 hour. After removal of the formalin, cells were washed with ddH2O twice, then washed with 60% isopropanol. Cells were dried completely. Cells were stained with Oil Red working solution (˜5 mM) for 25 minutes, then immediately washed with ddH2O four times, then dried completely again. Oil Red dye was eluted with 100% isopropanol and absorbance was read at 500 nm. Unstained cells plus isopropanol was used as a blank and subtracted from all readings. Data are represented as mean±SEM for each treatment group.

AMPK = experiment: Western blot, P-AMPK/AMPK in C. elegans treated from L1 stage to adulthood; assay type: in vivo; conditions: for ratio of P-AMPK/AMPK (FIG. 7B): 3 days, control approximately 0.18
Experimental: C. elegans culture: Synchronized L1 wild-type worms were transferred to NGM agar plates with the following treatments until adulthood (3 days): 1. control NGM plates, 2. NGM plate with 10 nM Compound 2 added to E. coli suspension, 3. NGM plate with 100 nM Compound 2 added to E. coli suspension.
Western blots: Phospho-AMPK, AMPK, Phospho-ACC, ACC antibodies were obtained from Cell Signaling (Danvers, Mass.). Sir2 antibody was obtained from MyBiosource (San Diego, Calif.). Protein levels of cell extracts were measured by BCA kit (Thermo Scientific, Pittsburgh, Pa.). For Western blot, 10-50 μg protein was resolved on 4-15% gradient polyacrylaminde gels (Criterion precast gel, Bio-Rad Laboratories, Hercules, Calif.), transferred to either PVDF or nitrocellulose membranes, incubated in blocking buffer (3% BSA or 5% non-fat dry milk in TBS) and then incubated with primary antibody (1:1000 dilution), washed and incubated with horseradish peroxidase- or fluorescence-conjugated secondary antibody (1:10000 dilution). Visualization was conducted using BioRad ChemiDoc instrumentation and software (Bio-Rad Laboratories, Hercules, Calif.) and band intensity was assessed using Image Lab 4.0 with correction for background and loading controls.

Structure (SMILES): CC(C)C[C@@H]1NC(N=C(N)N)=NC1=O [Compound 2]
- effect on fat accumulation (HepG2 liver cells; HepG2, all tested concentrations (1 nM to 10 uM)): significantly reduced
- reduction of fat accumulation (highest effect) (HepG2 liver cells; HepG2, high glucose (25 mM) DMEM plus 100 nM insulin, 10 nM, p<0.025): up to 40%
- ratio of P-AMPK/AMPK (FIG. 7B) (AMPK; 10 nM): approximately 0.27
- ratio of P-AMPK/AMPK (FIG. 7B) (AMPK; 100 nM): approximately 0.26
- increase of P-AMPK/AMPK protein expression (AMPK; L1 stage to adulthood (3 days), p=0.06): approximately 50%
